Like-named read-outs stand apart in the source and are kept apart here.
Tests used:
urease [1] = conditions: Limburgerhof soil; for % N loss based on fertilized N quantity: 30% strength urea solution, 10 days' incubation, inhibitor 0.125% (w/w) based on urea, 20° C.; for % N loss relative to NBTPT without mixing partner / % N loss relative to NNDiTPT without mixing partner / % N loss relative to NNDBTPT without mixing partner / % N loss relative to NiBTPT without mixing partner / % N loss relative to NPTPT without mixing partner / % N loss relative to NcHTPT without mixing partner / % N loss relative to NPenTPT without mixing partner: 30% urea solution, 10 days
Experimental: (§1) The efficacy of the (thio)phosphoric triamides, individually and in combination, was tested by a method based on that of Fenn & Kissel ((1973) Ammonia volatilization from surface applications of ammonium compounds on calcareous soils. Soil Sci. Soc. Am. J. 37, 855-859) for their effect in limiting ammonia volatilization from urea or urea-comprising fertilizers. Three different soils in which ammonia volatilization after urea fertilization is particularly pronounced were used. These soils are distinguished by relatively high pH values of >6.5 and/or low base buffering. […] 200 g of dry soil per incubation vessel were moistened with 5.4 ml of fully demineralized water, and 1.087 g of urea (corresponds to 500 mg of urea-N) were applied in the form of granules. If urea-comprising solutions were tested, the 200 g of soil were moistened with an aqueous urea-comprising solution comprising 1.630 g of urea (corresponds to 750 mg of urea-N), without or with urease inhibitor or combinations of these. The solution was applied dropwise over the entire soil surface, using a pipette. The amount of (thio)phosphoric triamides as individual substances or in combination in different proportions was always a uniform 0.125% (w/w) based on urea. The incubations were accomplished at 20° C. (18-22° C.) in a controlled-environment cabinet. The ammonia collected in the acid trap was determined quantitatively as ammonium using a continuous flow analyzer (from Bran+Luebbe), proceeding by methods with which the skilled worker is familiar.

urease [2] = conditions: granulated urea, Limburgerhof soil; for % N loss based on fertilized N quantity: 10 days' incubation, inhibitor 0.125% (w/w) based on urea, 20° C.; for % N loss relative to NBTPT without mixing partner / % N loss relative to NiBTPT without mixing partner / % N loss relative to NPTPT without mixing partner / % N loss relative to NcHTPT without mixing partner / % N loss relative to NPenTPT without mixing partner: 10 days
Experimental: as §1

urease [3] = conditions: Table 10, granulated urea, soil in France; for % N loss based on fertilized N quantity: 10 days' incubation, inhibitor 0.125% (w/w) based on urea, 20° C.; for % N loss relative to NBTPT without mixing partner / % N loss relative to NPTPT without mixing partner: 10 days, NBTPT/NPTPT series
Experimental: as §1

urease [4] = conditions: Table 9, granulated urea, soil in Hanover; for % N loss based on fertilized N quantity: 10 days' incubation, inhibitor 0.125% (w/w) based on urea, 20° C.; for % N loss relative to NBTPT without mixing partner / % N loss relative to NPTPT without mixing partner: 10 days, NBTPT/NPTPT series
Experimental: as §1

[5] = Table 12, comparative experiment
[6] = Table 12, NBTPT/NNDiBTPT series
[7] = Table 11, comparative experiment

CC(C)CN(CC(C)C)P(N)(N)=S [NNDiBTPT, N,N-di-isobutylthiophosphoric triamide]
% N loss based on fertilized N quantity (urease [1]; [5]): 21.83% | % N loss relative to NBTPT without mixing partner (urease [1]; [6]): 1149% | % N loss relative to NNDiTPT without mixing partner (urease [1]; [6]): 100%

CCCCN(CCCC)P(N)(N)=S [NNDBTPT, N,N-di-n-butylthiophosphoric triamide]
% N loss based on fertilized N quantity (urease [1]; [7]): 19.24% | % N loss relative to NBTPT without mixing partner (urease [1]; Table 11, NBTPT/NNDBTPT series): 1013% | % N loss relative to NNDBTPT without mixing partner (urease [1]; Table 11, NBTPT/NNDBTPT series): 100%

CC(C)CNP(N)(N)=S [NiBTPT, N-isobutylthiophosphoric triamide]
% N loss based on fertilized N quantity (urease [1]; Table 7): 0.54% | % N loss relative to NBTPT without mixing partner (urease [1]; Table 7, NBTPT/NiBTPT series): 164% | % N loss relative to NiBTPT without mixing partner (urease [1]; Table 7, NBTPT/NiBTPT series): 100% | % N loss based on fertilized N quantity (urease [2]; Table 3): 1.68% | % N loss relative to NBTPT without mixing partner (urease [2]; Table 3, NBTPT/NiBTPT series): 109% | % N loss relative to NiBTPT without mixing partner (urease [2]; Table 3, NBTPT/NiBTPT series): 100%

CCCNP(N)(N)=S [NPTPT, N-n-propylthiophosphoric triamide]
% N loss based on fertilized N quantity (urease [1]; Table 8): 0.42% | % N loss relative to NBTPT without mixing partner (urease [1]; Table 8, NBTPT/NPTPT series): 127% | % N loss relative to NPTPT without mixing partner (urease [1]; Table 8, NBTPT/NPTPT series): 100% | % N loss based on fertilized N quantity (urease [3]): 1.57% | % N loss relative to NBTPT without mixing partner (urease [3]): 121% | % N loss relative to NPTPT without mixing partner (urease [3]): 100% | % N loss based on fertilized N quantity (urease [2]; Table 4): 1.60% | % N loss relative to NBTPT without mixing partner (urease [2]; Table 4, NBTPT/NPTPT series): 104% | % N loss relative to NPTPT without mixing partner (urease [2]; Table 4, NBTPT/NPTPT series): 100% | % N loss based on fertilized N quantity (urease [4]): 2.08% | % N loss relative to NBTPT without mixing partner (urease [4]): 158% | % N loss relative to NPTPT without mixing partner (urease [4]): 100%

CCCCNP(N)(N)=S [NBTPT, N-n-butylthiophosphoric triamide]
% N loss based on fertilized N quantity (urease [1]; Table 5): 0.69% | % N loss relative to NBTPT without mixing partner (urease [1]; Table 5, NBTPT/NcHTPT series): 100% | % N loss relative to NcHTPT without mixing partner (urease [1]; Table 5, NBTPT/NcHTPT series): 62% | % N loss based on fertilized N quantity (urease [1]; Table 6): 0.71% | % N loss relative to NBTPT without mixing partner (urease [1]; Table 6, NBTPT/NPenTPT series): 100% | % N loss relative to NPenTPT without mixing partner (urease [1]; Table 6, NBTPT/NPenTPT series): 63% | % N loss based on fertilized N quantity (urease [1]; Table 7): 0.33% | % N loss relative to NBTPT without mixing partner (urease [1]; Table 7, NBTPT/NiBTPT series): 100% | % N loss relative to NiBTPT without mixing partner (urease [1]; Table 7, NBTPT/NiBTPT series): 61% | % N loss based on fertilized N quantity (urease [1]; Table 8): 0.33% | % N loss relative to NBTPT without mixing partner (urease [1]; Table 8, NBTPT/NPTPT series): 100% | % N loss relative to NPTPT without mixing partner (urease [1]; Table 8, NBTPT/NPTPT series): 79% | % N loss based on fertilized N quantity (urease [1]; [7]): 1.90% | % N loss relative to NBTPT without mixing partner (urease [1]; Table 11, NBTPT/NNDBTPT series): 100% | % N loss relative to NNDBTPT without mixing partner (urease [1]; Table 11, NBTPT/NNDBTPT series): 10% | % N loss based on fertilized N quantity (urease [1]; [5]): 1.90% | % N loss relative to NBTPT without mixing partner (urease [1]; [6]): 100% | % N loss relative to NNDiTPT without mixing partner (urease [1]; [6]): 9% | % N loss based on fertilized N quantity (urease [3]): 1.30% | % N loss relative to NBTPT without mixing partner (urease [3]): 100% | % N loss relative to NPTPT without mixing partner (urease [3]): 83% | % N loss based on fertilized N quantity (urease [2]; Table 1): 1.54% | % N loss relative to NBTPT without mixing partner (urease [2]; Table 1, NBTPT/NcHTPT series): 100% | % N loss relative to NcHTPT without mixing partner (urease [2]; Table 1, NBTPT/NcHTPT series): 56% | % N loss based on fertilized N quantity (urease [2]; Table 2): 1.54% | % N loss relative to NBTPT without mixing partner (urease [2]; Table 2, NBTPT/NPenTPT series): 100% | % N loss relative to NPenTPT without mixing partner (urease [2]; Table 2, NBTPT/NPenTPT series): 63% | % N loss based on fertilized N quantity (urease [2]; Table 3): 1.54% | % N loss relative to NBTPT without mixing partner (urease [2]; Table 3, NBTPT/NiBTPT series): 100% | % N loss relative to NiBTPT without mixing partner (urease [2]; Table 3, NBTPT/NiBTPT series): 92% | % N loss based on fertilized N quantity (urease [2]; Table 4): 1.54% | % N loss relative to NBTPT without mixing partner (urease [2]; Table 4, NBTPT/NPTPT series): 100% | % N loss relative to NPTPT without mixing partner (urease [2]; Table 4, NBTPT/NPTPT series): 96% | % N loss based on fertilized N quantity (urease [4]): 1.32% | % N loss relative to NBTPT without mixing partner (urease [4]): 100% | % N loss relative to NPTPT without mixing partner (urease [4]): 63%

CCCCCNP(N)(N)=S [NPenTPT, N-pentylthiophosphoric triamide]
% N loss based on fertilized N quantity (urease [1]; Table 6): 1.12% | % N loss relative to NBTPT without mixing partner (urease [1]; Table 6, NBTPT/NPenTPT series): 158% | % N loss relative to NPenTPT without mixing partner (urease [1]; Table 6, NBTPT/NPenTPT series): 100% | % N loss based on fertilized N quantity (urease [2]; Table 2): 2.46% | % N loss relative to NBTPT without mixing partner (urease [2]; Table 2, NBTPT/NPenTPT series): 130% | % N loss relative to NPenTPT without mixing partner (urease [2]; Table 2, NBTPT/NPenTPT series): 100%

NP(N)(=S)NC1CCCCC1 [NcHTPT, N-cyclohexylthiophosphoric triamide]
% N loss based on fertilized N quantity (urease [1]; Table 5): 1.11% | % N loss relative to NBTPT without mixing partner (urease [1]; Table 5, NBTPT/NcHTPT series): 160% | % N loss relative to NcHTPT without mixing partner (urease [1]; Table 5, NBTPT/NcHTPT series): 100% | % N loss based on fertilized N quantity (urease [2]; Table 1): 2.77% | % N loss relative to NBTPT without mixing partner (urease [2]; Table 1, NBTPT/NcHTPT series): 180% | % N loss relative to NcHTPT without mixing partner (urease [2]; Table 1, NBTPT/NcHTPT series): 100%
